# Reference: the supplement of paper PMC10307832
# What was measured:
# Test in all cases: relative viability (nuclei count vs DMSO), 5 days (fraction); higher = more cells survive
# CX-5461 + Olaparib = compound: Cc1cnc(CNC(=O)c2c(=O)c3ccc(N4CCCN(C)CC4)nc3n3c2sc2ccccc23)cn1 [CX-5461] + O=C(c1cc(Cc2n[nH]c(=O)c3ccccc23)ccc1F)N1CCN(C(=O)C2CC2)CC1 [Olaparib] (partner 8 µM)
# Outline: (§1)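 Values are medians from duplicate plates. Each reflects relative viability, defined as the nuclei count of treated wells over that of vehicle wells. Lung cancer cell lines in 1536-well plates were pin-tool dosed one day after seeding with one drug alone or with a fixed anchor-drug dose plus five library-drug doses (not always all listed) in √10 steps, then fixed, stained and imaged at 4× after 5 days.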
# IMD-0354 + Trametinib = compound: O=C(Nc1cc(C(F)(F)F)cc(C(F)(F)F)c1)c1cc(Cl)ccc1O [IMD-0354] + CC(=O)Nc1cccc(-n2c(=O)n(C3CC3)c(=O)c3c(Nc4ccc(I)cc4F)n(C)c(=O)c(C)c32)c1 [Trametinib] (partner 0.02 µM)
# Outline: as §1
# IMD-0354 + OSI-027 = compound: O=C(Nc1cc(C(F)(F)F)cc(C(F)(F)F)c1)c1cc(Cl)ccc1O [IMD-0354] + COc1cccc2cc(-c3nc([C@H]4CC[C@H](C(=O)O)CC4)n4ncnc(N)c34)[nH]c12 [OSI-027] (partner 0.5 µM)
# Outline: as §1
# IMD-0354 + Crizotinib = compound: O=C(Nc1cc(C(F)(F)F)cc(C(F)(F)F)c1)c1cc(Cl)ccc1O [IMD-0354] + C[C@@H](Oc1cc(-c2cnn(C3CCNCC3)c2)cnc1N)c1c(Cl)ccc(F)c1Cl [Crizotinib] (partner 1 µM)
# Outline: as §1
Cell Line,relative viability (CX-5461 + Olaparib; first compound 0.01 µM),relative viability (CX-5461 + Olaparib; first compound 0.03162 µM),relative viability (CX-5461 + Olaparib; first compound 0.3162 µM),relative viability (CX-5461 + Olaparib; first compound 1 µM),relative viability (IMD-0354 + Trametinib; first compound 0.04 µM),relative viability (IMD-0354 + Trametinib; first compound 0.1265 µM),relative viability (IMD-0354 + Trametinib; first compound 0.4 µM),relative viability (IMD-0354 + Trametinib; first compound 1.265 µM),relative viability (IMD-0354 + Trametinib; first compound 4 µM),relative viability (IMD-0354 + OSI-027; first compound 0.04 µM),relative viability (IMD-0354 + OSI-027; first compound 0.1265 µM),relative viability (IMD-0354 + OSI-027; first compound 0.4 µM),relative viability (IMD-0354 + OSI-027; first compound 1.265 µM),relative viability (IMD-0354 + OSI-027; first compound 4 µM),relative viability (IMD-0354 + Crizotinib; first compound 0.04 µM),relative viability (IMD-0354 + Crizotinib; first compound 0.1265 µM),relative viability (IMD-0354 + Crizotinib; first compound 0.4 µM),relative viability (IMD-0354 + Crizotinib; first compound 1.265 µM),relative viability (IMD-0354 + Crizotinib; first compound 4 µM),relative viability (CX-5461 + Olaparib; first compound 0.1 µM)
NCI-H2023,0.445,0.354,0.248,0.0686,0.473,0.504,0.366,0.0709,0.115,0.484,0.382,0.274,0.105,0.108,0.671,0.618,0.432,0.172,0.0868,
NCI-H520,0.309,0.315,0.277,0.184,0.687,0.725,0.522,0.143,0.149,0.297,0.27,0.194,0.283,0.129,0.959,0.672,0.44,0.459,0.239,0.261
RERF-LC-KJ,0.785,0.827,0.848,0.415,1.02,0.931,0.663,0.557,0.174,0.649,0.628,0.493,0.198,0.214,0.861,0.893,0.495,0.311,0.196,0.619
A-427,0.802,0.772,0.247,0.465,0.878,0.73,0.636,0.176,0.162,0.66,0.459,0.288,0.127,0.135,0.877,0.793,0.519,0.185,0.139,0.626
NCI-H441,0.553,0.664,0.588,0.448,0.528,0.543,0.359,0.164,0.191,0.593,0.604,0.329,0.169,0.231,0.573,0.713,0.514,0.363,0.202,0.478
NCI-H1792,0.424,0.471,0.371,0.39,0.496,0.564,0.221,0.292,0.135,0.791,0.701,0.35,0.394,0.418,1.14,0.959,0.696,0.512,0.391,0.477
SW 1573,0.395,0.468,0.438,0.141,0.631,0.554,0.384,0.107,0.105,0.849,0.566,0.349,0.124,0.0864,0.819,0.763,0.408,0.268,0.115,0.29
PC-3 [JPC-3],1.15,,1.15,0.898,0.825,0.676,0.65,0.399,0.267,0.845,0.708,0.605,0.344,0.282,1.08,1.01,0.601,0.419,0.18,1.08
EMC-BAC-2,0.452,0.476,0.343,0.324,0.918,0.933,0.584,,0.3,0.403,0.386,0.33,0.336,0.3,0.869,0.677,0.586,0.415,0.27,0.383
NCI-H2126,0.956,0.974,0.968,0.863,0.591,0.558,0.491,0.644,0.31,0.752,0.609,0.594,0.588,0.524,1.03,0.997,0.878,0.6,0.322,0.924
NCI-H3122,0.695,0.653,0.667,0.617,0.215,0.223,0.178,0.252,0.147,1.08,0.851,0.505,0.223,0.114,0.298,0.29,0.281,0.202,0.167,0.615
NCI-H1975,0.898,0.822,0.853,0.558,0.4,0.379,0.271,0.159,0.138,0.917,0.6,0.402,0.205,0.155,1.15,0.959,0.546,0.211,0.192,0.68
NCI-H2170,0.613,0.566,0.599,0.609,1.03,0.909,0.562,0.897,0.481,0.764,0.673,0.475,0.547,0.231,1.3,1.39,0.574,1.2,0.33,0.645
LU99A,0.27,0.241,0.221,0.284,0.434,0.475,0.442,0.505,0.206,0.351,0.286,0.246,0.259,0.196,0.453,0.62,0.482,0.214,0.203,0.297
NCI-H2347,0.57,0.648,0.477,0.517,0.279,0.296,0.227,0.27,0.207,0.37,0.331,0.42,0.294,0.335,0.752,0.654,0.62,0.395,0.365,0.606
NCI-H2009,0.631,0.621,0.672,0.565,0.312,0.298,0.249,0.129,0.154,0.703,0.564,0.416,0.133,0.109,1.1,0.981,0.698,0.165,0.111,0.616

Cell Line,relative viability (CX-5461 + Olaparib; first compound 0.01 µM),relative viability (CX-5461 + Olaparib; first compound 0.03162 µM),relative viability (CX-5461 + Olaparib; first compound 0.3162 µM),relative viability (CX-5461 + Olaparib; first compound 1 µM),relative viability (IMD-0354 + Trametinib; first compound 0.04 µM),relative viability (IMD-0354 + Trametinib; first compound 0.1265 µM),relative viability (IMD-0354 + Trametinib; first compound 0.4 µM),relative viability (IMD-0354 + Trametinib; first compound 1.265 µM),relative viability (IMD-0354 + Trametinib; first compound 4 µM),relative viability (IMD-0354 + OSI-027; first compound 0.04 µM),relative viability (IMD-0354 + OSI-027; first compound 0.1265 µM),relative viability (IMD-0354 + OSI-027; first compound 0.4 µM),relative viability (IMD-0354 + OSI-027; first compound 1.265 µM),relative viability (IMD-0354 + OSI-027; first compound 4 µM),relative viability (IMD-0354 + Crizotinib; first compound 0.04 µM),relative viability (IMD-0354 + Crizotinib; first compound 0.1265 µM),relative viability (IMD-0354 + Crizotinib; first compound 0.4 µM),relative viability (IMD-0354 + Crizotinib; first compound 1.265 µM),relative viability (IMD-0354 + Crizotinib; first compound 4 µM),relative viability (CX-5461 + Olaparib; first compound 0.1 µM)
HCC-15,0.607,0.721,0.693,0.538,0.387,0.35,0.335,0.269,0.146,0.656,0.615,0.366,0.164,0.131,0.872,0.83,0.486,0.274,0.119,0.625
HCC-44,0.966,1.04,1,1.01,1.09,1.14,0.973,1.04,0.319,0.556,0.562,0.334,0.285,0.215,0.893,0.785,0.361,0.169,0.169,1.03
COR-L23,0.36,0.338,0.3,0.185,0.64,0.576,0.458,0.118,0.163,0.767,0.679,0.397,0.145,0.178,0.616,0.532,0.302,0.193,0.131,0.299
HCC-78,0.977,0.856,0.816,0.738,0.765,0.687,0.766,0.782,0.334,0.321,0.363,0.314,0.296,0.283,0.317,0.323,0.251,0.37,0.189,0.949
NCI-H727,0.713,0.704,0.837,0.763,0.38,0.323,0.365,0.351,0.394,0.93,0.585,0.415,0.395,0.312,0.688,0.827,0.484,0.547,0.385,0.762
NCI-H2087,0.683,0.68,0.602,0.471,0.18,0.183,0.125,0.097,0.116,0.496,0.646,0.189,0.119,0.112,0.822,0.827,0.265,0.156,0.152,0.583
BEN,1.12,1.06,1.02,0.737,1.07,0.853,0.814,0.472,0.401,0.306,0.301,0.264,0.311,0.195,0.856,0.8,0.463,0.366,0.299,1.2
LCLC-103H,0.766,0.857,0.788,0.762,0.703,0.703,0.521,0.602,0.315,0.592,0.471,0.375,0.295,0.196,1.02,1.18,0.734,0.703,0.352,0.793
EKVX,0.931,0.901,,0.73,0.399,0.3,,0.339,0.175,0.771,0.685,0.629,0.631,0.19,1.01,0.993,,1.07,0.246,0.983
LXF-289,1.03,1.19,,0.953,0.721,0.62,0.643,0.5,0.207,0.871,0.772,0.492,0.34,0.115,0.834,0.803,0.575,0.229,0.069,1.05
NCI-H650,0.369,0.399,0.329,0.337,0.987,1.07,1.05,0.681,0.232,0.591,0.498,0.447,0.29,0.177,0.844,0.714,0.542,0.528,0.2,0.399
NCI-H1650,0.718,0.819,0.756,0.257,0.568,0.558,0.479,0.131,0.254,0.704,0.491,0.362,0.189,0.259,0.921,0.793,0.578,0.19,0.205,0.642
NCI-H2085,0.772,0.783,0.787,0.736,0.559,0.477,0.471,0.25,0.27,0.773,0.78,0.522,0.362,0.212,0.613,0.753,0.788,0.511,0.315,0.845
NCI-H1944,0.409,0.381,0.392,0.395,0.399,0.391,0.388,0.39,0.167,0.441,0.445,0.375,0.317,0.161,0.947,1.07,,1.04,0.157,0.422
LC-2-ad,0.643,0.694,0.667,0.617,0.968,0.877,0.54,0.348,0.189,0.827,0.852,0.441,0.298,0.193,0.431,0.466,0.37,0.358,0.239,0.689
COR-L 105,0.658,0.654,0.675,0.447,0.435,0.448,0.455,0.342,0.318,0.812,0.697,0.533,0.363,0.23,0.856,0.906,0.538,0.55,0.261,0.718
